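Assay format: 96-well plates, 48-hour exposure. GI50 marks 50% less growth. TGI: total growth inhibition.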
Legend:
Experiment in all cases: inhibition of tumour cell growth, NCI panel, 48 h; in the data active means GI50 below about 0.43 µM; inactive means the rest
HT29 colon = system: HT29 colon
SF-295 CNS = system: SF-295 CNS
U251 CNS = system: U251 CNS
HOP-62 NSCLC = system: HOP-62 NSCLC
SF-268 CNS = system: SF-268 CNS
HCC-2998 colon = system: HCC-2998 colon
SNB-19 CNS = system: SNB-19 CNS
MCF7 breast = system: MCF7 breast
OVCAR-3 ovarian = system: OVCAR-3 ovarian
MALME-3M melanoma = system: MALME-3M melanoma
786-0 renal = system: 786-0 renal
DU-145 prostate = system: DU-145 prostate
A549 NSCLC = system: A549 NSCLC
NCI-H460 lung = system: NCI-H460 lung
HS 578T breast = system: HS 578T breast
LOX IMVI melanoma = system: LOX IMVI melanoma
NCI/ADR-RES ovarian = system: NCI/ADR-RES ovarian
RPMI-8226 leukemia = system: RPMI-8226 leukemia
HL-60(TB) leukemia = system: HL-60(TB) leukemia
HCT-15 colon = system: HCT-15 colon
MOLT-4 leukemia = system: MOLT-4 leukemia
UO-31 renal = system: UO-31 renal
SK-OV-3 ovarian = system: SK-OV-3 ovarian
SNB-75 CNS = system: SNB-75 CNS
COLO 205 colon = system: COLO 205 colon
M14 melanoma = system: M14 melanoma
T-47D breast = system: T-47D breast
ACHN renal = system: ACHN renal
OVCAR-4 ovarian = system: OVCAR-4 ovarian
KM12 colon = system: KM12 colon
UACC-257 melanoma = system: UACC-257 melanoma
CCRF-CEM leukemia = system: CCRF-CEM leukemia
SF-539 CNS = system: SF-539 CNS
SR leukemia = system: SR leukemia
A498 renal = system: A498 renal
OVCAR-5 ovarian = system: OVCAR-5 ovarian
SW-620 colon = system: SW-620 colon
CAKI-1 renal = system: CAKI-1 renal
MDA-MB-231 breast = system: MDA-MB-231 breast
SN12C renal = system: SN12C renal
HCT-116 colon = system: HCT-116 colon
SK-MEL-28 melanoma = system: SK-MEL-28 melanoma
NCI-H23 lung = system: NCI-H23 lung
UACC-62 melanoma = system: UACC-62 melanoma
SK-MEL-2 melanoma = system: SK-MEL-2 melanoma
RXF 393 renal = system: RXF 393 renal
TK-10 renal = system: TK-10 renal
BT-549 breast = system: BT-549 breast
SK-MEL-5 melanoma = system: SK-MEL-5 melanoma
K-562 leukemia = system: K-562 leukemia
NCI-H226 lung = system: NCI-H226 lung
NCI-H522 lung = system: NCI-H522 lung
PC-3 prostate = system: PC-3 prostate
IGROV1 ovarian = system: IGROV1 ovarian
OVCAR-8 ovarian = system: OVCAR-8 ovarian
MDA-MB-435 = system: MDA-MB-435

CCn1c(-c2nonc2N)nc2cncc(C(=O)N3CC[C@H](N)C3)c21
> 25 µM: TGI (HT29 colon) | TGI (SF-295 CNS) | TGI (U251 CNS) | TGI (HOP-62 NSCLC) | TGI (SF-268 CNS) | TGI (HCC-2998 colon) | TGI (SNB-19 CNS) | TGI (MCF7 breast) | TGI (OVCAR-3 ovarian) | TGI (MALME-3M melanoma) | TGI (786-0 renal) | TGI (DU-145 prostate) | TGI (A549 NSCLC) | TGI (NCI-H460 lung) | TGI (HS 578T breast) | TGI (LOX IMVI melanoma) | TGI (NCI/ADR-RES ovarian) | TGI (RPMI-8226 leukemia) | TGI (HL-60(TB) leukemia) | TGI (HCT-15 colon) | TGI (MOLT-4 leukemia) | TGI (SK-OV-3 ovarian) | TGI (M14 melanoma) | TGI (T-47D breast) | TGI (ACHN renal) | TGI (OVCAR-4 ovarian) | TGI (KM12 colon) | TGI (UACC-257 melanoma) | TGI (CCRF-CEM leukemia) | TGI (SF-539 CNS) | TGI (SR leukemia) | TGI (A498 renal) | TGI (OVCAR-5 ovarian) | TGI (SW-620 colon) | TGI (CAKI-1 renal) | TGI (MDA-MB-231 breast) | TGI (SN12C renal) | TGI (HCT-116 colon) | TGI (SK-MEL-28 melanoma) | TGI (NCI-H23 lung) | TGI (UACC-62 melanoma) | TGI (SK-MEL-2 melanoma) | TGI (RXF 393 renal) | TGI (BT-549 breast) | TGI (SK-MEL-5 melanoma) | TGI (K-562 leukemia) | TGI (NCI-H226 lung) | TGI (NCI-H522 lung) | TGI (PC-3 prostate) | TGI (IGROV1 ovarian) | TGI (OVCAR-8 ovarian) | TGI (MDA-MB-435)
> 7.84 µM: TGI (SNB-75 CNS)
> 8.77 µM: TGI (UO-31 renal)
active: GI50 (UO-31 renal) 0.269 µM | GI50 (SNB-75 CNS) 0.319 µM
24.7 µM: TGI (COLO 205 colon)
9.22 µM: TGI (TK-10 renal)
inactive: GI50 (HT29 colon) > 25 µM | GI50 (SF-295 CNS) 5.05 µM | GI50 (U251 CNS) > 25 µM | GI50 (HOP-62 NSCLC) 7.38 µM | GI50 (SF-268 CNS) > 19.5 µM | GI50 (HCC-2998 colon) > 25 µM | GI50 (SNB-19 CNS) > 25 µM | GI50 (MCF7 breast) 14.1 µM | GI50 (OVCAR-3 ovarian) > 25 µM | GI50 (MALME-3M melanoma) > 25 µM | GI50 (786-0 renal) > 20.4 µM | GI50 (DU-145 prostate) > 25 µM | GI50 (A549 NSCLC) 7.29 µM | GI50 (NCI-H460 lung) 17.7 µM | GI50 (HS 578T breast) 0.559 µM | GI50 (LOX IMVI melanoma) > 25 µM | GI50 (NCI/ADR-RES ovarian) > 25 µM | GI50 (RPMI-8226 leukemia) > 25 µM | GI50 (HL-60(TB) leukemia) > 25 µM | GI50 (HCT-15 colon) 8.29 µM | GI50 (MOLT-4 leukemia) > 25 µM | GI50 (SK-OV-3 ovarian) > 25 µM | GI50 (COLO 205 colon) 5.87 µM | GI50 (M14 melanoma) 24.6 µM | GI50 (T-47D breast) 24.9 µM | GI50 (ACHN renal) > 25 µM | GI50 (OVCAR-4 ovarian) > 25 µM | GI50 (KM12 colon) > 25 µM | GI50 (UACC-257 melanoma) > 25 µM | GI50 (CCRF-CEM leukemia) 15.2 µM | GI50 (SF-539 CNS) 2.63 µM | GI50 (SR leukemia) 2.01 µM | GI50 (A498 renal) 1.2 µM | GI50 (OVCAR-5 ovarian) > 25 µM | GI50 (SW-620 colon) > 25 µM | GI50 (CAKI-1 renal) 2.35 µM | GI50 (MDA-MB-231 breast) > 25 µM | GI50 (SN12C renal) > 25 µM | GI50 (HCT-116 colon) 9.9 µM | GI50 (SK-MEL-28 melanoma) > 25 µM | GI50 (NCI-H23 lung) > 25 µM | GI50 (UACC-62 melanoma) > 25 µM | GI50 (SK-MEL-2 melanoma) > 25 µM | GI50 (RXF 393 renal) > 6.57 µM | GI50 (TK-10 renal) 0.549 µM | GI50 (BT-549 breast) 3.92 µM | GI50 (SK-MEL-5 melanoma) > 25 µM | GI50 (K-562 leukemia) > 25 µM | GI50 (NCI-H226 lung) 0.966 µM | GI50 (NCI-H522 lung) > 9.56 µM | GI50 (PC-3 prostate) > 25 µM | GI50 (IGROV1 ovarian) > 25 µM | GI50 (OVCAR-8 ovarian) > 25 µM | GI50 (MDA-MB-435) > 25 µM
